Common to all, as to test: biochemical
Holding throughout (type): binding

The target of assay [1] is T1, panel of 442 kinases (Homo sapiens, UniProt O15075).
T1 construct: purchased Ambit Biosciences (scanMAXX KINOMEscan)
The note with it: DCAMKL1; for remaining activity at 1 µM: read-out: % of control at 1 µM.

For assay [2], the target named is T2, panel of 442 kinases (Homo sapiens, UniProt Q8N568).
T2 construct: purchased Ambit Biosciences (scanMAXX KINOMEscan)
As to conditions: DCAMKL2; for remaining activity at 1 µM: read-out: % of control at 1 µM.

Assay [3] concerns the target T3, panel of 442 kinases (Homo sapiens, UniProt P36897).
T3 construct: purchased Ambit Biosciences (scanMAXX KINOMEscan)
T3 sequence (P36897 34-503): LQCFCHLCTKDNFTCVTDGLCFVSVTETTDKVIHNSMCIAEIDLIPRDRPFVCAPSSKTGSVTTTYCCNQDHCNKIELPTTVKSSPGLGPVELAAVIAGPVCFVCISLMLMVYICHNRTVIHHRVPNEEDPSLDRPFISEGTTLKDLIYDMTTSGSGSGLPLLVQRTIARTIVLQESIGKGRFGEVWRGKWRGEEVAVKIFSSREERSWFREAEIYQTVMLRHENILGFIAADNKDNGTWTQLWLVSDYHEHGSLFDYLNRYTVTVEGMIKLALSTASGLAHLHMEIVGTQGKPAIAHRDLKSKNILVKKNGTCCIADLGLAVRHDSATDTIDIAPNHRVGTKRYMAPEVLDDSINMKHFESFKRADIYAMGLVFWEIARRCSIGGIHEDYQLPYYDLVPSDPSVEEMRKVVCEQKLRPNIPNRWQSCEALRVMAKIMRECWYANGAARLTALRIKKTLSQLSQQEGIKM
The note with it: kinase TGFBR1; for remaining activity at 1 µM: read-out: TGFBR1 (% of control at 1 µM).

Assay [4] has as its target T4, panel of 442 kinases (Homo sapiens, UniProt O96017).
T4 construct: purchased Ambit Biosciences (scanMAXX KINOMEscan)
As to conditions: CHEK2; for remaining activity at 1 µM: read-out: % of control at 1 µM.

Assay [5] deals with T5, panel of 442 kinases (Homo sapiens, UniProt P08581, Y1235D).
T5 construct: purchased Ambit Biosciences (scanMAXX KINOMEscan)
T5 sequence (P08581 25-1390 Y1235D): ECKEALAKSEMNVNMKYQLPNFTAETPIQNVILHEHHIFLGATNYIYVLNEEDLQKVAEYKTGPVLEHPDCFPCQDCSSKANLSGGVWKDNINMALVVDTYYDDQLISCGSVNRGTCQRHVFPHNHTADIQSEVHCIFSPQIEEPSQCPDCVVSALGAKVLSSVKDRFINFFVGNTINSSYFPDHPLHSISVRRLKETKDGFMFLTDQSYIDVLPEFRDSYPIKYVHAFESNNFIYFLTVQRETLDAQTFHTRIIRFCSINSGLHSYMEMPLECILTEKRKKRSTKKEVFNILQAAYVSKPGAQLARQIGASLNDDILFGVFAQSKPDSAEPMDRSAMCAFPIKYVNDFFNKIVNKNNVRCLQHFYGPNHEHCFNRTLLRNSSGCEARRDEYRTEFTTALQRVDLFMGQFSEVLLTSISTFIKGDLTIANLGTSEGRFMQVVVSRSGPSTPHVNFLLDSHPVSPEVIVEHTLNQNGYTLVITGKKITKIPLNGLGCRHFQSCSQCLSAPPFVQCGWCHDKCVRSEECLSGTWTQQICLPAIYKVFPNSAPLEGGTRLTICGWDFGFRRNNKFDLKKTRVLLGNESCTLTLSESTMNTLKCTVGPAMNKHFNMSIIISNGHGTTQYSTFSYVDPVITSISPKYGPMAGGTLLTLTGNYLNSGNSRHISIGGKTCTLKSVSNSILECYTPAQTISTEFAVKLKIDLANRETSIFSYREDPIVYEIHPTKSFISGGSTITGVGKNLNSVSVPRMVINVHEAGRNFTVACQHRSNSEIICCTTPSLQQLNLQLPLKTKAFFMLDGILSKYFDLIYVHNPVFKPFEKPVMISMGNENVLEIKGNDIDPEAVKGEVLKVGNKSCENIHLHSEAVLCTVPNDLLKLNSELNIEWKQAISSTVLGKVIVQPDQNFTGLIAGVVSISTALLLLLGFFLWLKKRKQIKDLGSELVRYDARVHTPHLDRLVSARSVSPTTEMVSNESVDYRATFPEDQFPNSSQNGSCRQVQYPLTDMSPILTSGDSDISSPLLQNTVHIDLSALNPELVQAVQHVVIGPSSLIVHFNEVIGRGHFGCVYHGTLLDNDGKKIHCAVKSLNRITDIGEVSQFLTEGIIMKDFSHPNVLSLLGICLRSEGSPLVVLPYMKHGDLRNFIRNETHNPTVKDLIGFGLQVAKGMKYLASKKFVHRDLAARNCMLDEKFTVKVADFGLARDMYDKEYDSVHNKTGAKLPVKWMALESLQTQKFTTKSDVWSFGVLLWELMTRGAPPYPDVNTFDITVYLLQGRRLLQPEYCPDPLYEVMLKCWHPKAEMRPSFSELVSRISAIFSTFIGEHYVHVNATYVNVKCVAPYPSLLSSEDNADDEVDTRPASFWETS
The note with it: kinase MET(Y1235D); for remaining activity at 1 µM: read-out: % of control at 1 µM.

In assay [6] the target is T6, panel of 442 kinases (Homo sapiens, UniProt P00519, H396P).
T6 construct: purchased Ambit Biosciences (scanMAXX KINOMEscan)
As to conditions: for remaining activity at 1 µM: read-out: % of control at 1 µM; for remaining activity at 10 µM: read-out: % of control at 10 µM.

Assay [7] has as its target T7, panel of 442 kinases (Homo sapiens, UniProt P24723).
T7 construct: purchased Ambit Biosciences (scanMAXX KINOMEscan)
As to conditions: kinase PRKCH; for remaining activity at 1 µM: read-out: PRKCH (% of control at 1 µM).

Assay [8] addresses T8, panel of 442 kinases (Homo sapiens, UniProt Q9Y616).
T8 construct: purchased Ambit Biosciences (scanMAXX KINOMEscan)
T8 sequence (Q9Y616 1-596): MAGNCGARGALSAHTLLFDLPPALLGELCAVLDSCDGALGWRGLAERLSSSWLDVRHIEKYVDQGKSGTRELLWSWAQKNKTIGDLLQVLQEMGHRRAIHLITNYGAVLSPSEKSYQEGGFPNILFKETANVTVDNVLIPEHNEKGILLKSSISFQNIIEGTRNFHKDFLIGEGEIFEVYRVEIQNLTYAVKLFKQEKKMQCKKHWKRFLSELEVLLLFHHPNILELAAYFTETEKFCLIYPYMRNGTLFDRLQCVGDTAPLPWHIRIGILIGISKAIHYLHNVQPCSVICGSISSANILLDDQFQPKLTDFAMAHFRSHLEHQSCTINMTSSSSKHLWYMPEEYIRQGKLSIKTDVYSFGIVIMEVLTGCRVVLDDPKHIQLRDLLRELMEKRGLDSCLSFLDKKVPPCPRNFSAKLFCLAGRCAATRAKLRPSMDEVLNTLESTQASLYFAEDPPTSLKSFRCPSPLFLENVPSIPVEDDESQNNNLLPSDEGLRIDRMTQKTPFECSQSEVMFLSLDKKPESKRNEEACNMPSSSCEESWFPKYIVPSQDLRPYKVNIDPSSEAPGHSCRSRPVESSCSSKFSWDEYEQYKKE
The note with it: kinase IRAK3; for remaining activity at 1 µM: read-out: % of control at 1 µM.

Assay [9] has as its target T9, panel of 442 kinases (Homo sapiens, UniProt Q00532).
T9 construct: purchased Ambit Biosciences (scanMAXX KINOMEscan)
The note with it: CDKL1; for remaining activity at 1 µM: read-out: % of control at 1 µM.

Assay [10] concerns the target T10, panel of 442 kinases (Homo sapiens, UniProt O14757).
T10 construct: purchased Ambit Biosciences (scanMAXX KINOMEscan)
T10 sequence (O14757 1-476): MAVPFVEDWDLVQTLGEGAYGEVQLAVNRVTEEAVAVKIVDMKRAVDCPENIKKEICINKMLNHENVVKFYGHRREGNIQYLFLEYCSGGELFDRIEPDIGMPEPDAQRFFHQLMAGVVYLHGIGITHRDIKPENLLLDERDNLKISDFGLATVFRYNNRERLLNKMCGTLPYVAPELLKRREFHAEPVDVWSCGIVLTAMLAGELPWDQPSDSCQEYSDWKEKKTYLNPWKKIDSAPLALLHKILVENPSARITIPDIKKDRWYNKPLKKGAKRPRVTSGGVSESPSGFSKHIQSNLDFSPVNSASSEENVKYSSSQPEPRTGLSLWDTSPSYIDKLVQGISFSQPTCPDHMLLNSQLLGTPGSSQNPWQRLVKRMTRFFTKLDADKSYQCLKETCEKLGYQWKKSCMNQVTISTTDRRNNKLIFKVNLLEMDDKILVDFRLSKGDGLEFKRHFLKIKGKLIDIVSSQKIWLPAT
As to conditions: CHEK1; for remaining activity at 1 µM: read-out: % of control at 1 µM.

In assay [11] the target is T11, panel of 442 kinases (Homo sapiens, UniProt P00519).
T11 construct: purchased Ambit Biosciences (scanMAXX KINOMEscan)
The note with it: for remaining activity at 1 µM: read-out: % of control at 1 µM; for remaining activity at 10 µM: read-out: % of control at 10 µM.

Setting [12] is: 10 µM, read-out: % of control at 10 µM.

Read-outs that look alike come from different tables or passages of the source.

T9 sequence (Q00532 whole entry): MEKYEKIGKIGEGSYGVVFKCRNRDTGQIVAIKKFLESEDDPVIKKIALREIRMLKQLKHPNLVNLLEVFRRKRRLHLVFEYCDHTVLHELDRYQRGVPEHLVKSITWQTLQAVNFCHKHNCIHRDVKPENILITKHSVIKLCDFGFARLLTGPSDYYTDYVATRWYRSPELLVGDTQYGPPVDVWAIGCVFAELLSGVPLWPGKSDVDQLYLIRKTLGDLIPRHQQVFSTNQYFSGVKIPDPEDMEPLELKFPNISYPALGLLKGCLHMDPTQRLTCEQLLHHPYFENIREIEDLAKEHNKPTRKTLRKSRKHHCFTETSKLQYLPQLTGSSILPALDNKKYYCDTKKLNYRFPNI
T4 sequence (O96017 whole entry): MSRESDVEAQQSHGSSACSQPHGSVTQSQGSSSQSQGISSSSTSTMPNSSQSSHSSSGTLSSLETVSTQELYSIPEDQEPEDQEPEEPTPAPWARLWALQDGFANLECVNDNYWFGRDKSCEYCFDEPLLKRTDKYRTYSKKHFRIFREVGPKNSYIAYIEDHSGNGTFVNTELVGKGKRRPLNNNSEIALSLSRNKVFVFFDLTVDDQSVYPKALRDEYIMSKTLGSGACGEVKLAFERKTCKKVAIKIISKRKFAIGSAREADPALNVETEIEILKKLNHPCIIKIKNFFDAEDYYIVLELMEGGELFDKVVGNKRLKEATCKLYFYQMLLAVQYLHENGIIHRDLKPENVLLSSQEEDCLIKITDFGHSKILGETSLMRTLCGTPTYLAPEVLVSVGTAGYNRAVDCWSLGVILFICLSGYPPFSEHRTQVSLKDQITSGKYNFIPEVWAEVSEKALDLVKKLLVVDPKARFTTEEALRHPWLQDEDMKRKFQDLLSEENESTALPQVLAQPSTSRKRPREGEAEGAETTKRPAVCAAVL
T1 sequence (O15075 whole entry): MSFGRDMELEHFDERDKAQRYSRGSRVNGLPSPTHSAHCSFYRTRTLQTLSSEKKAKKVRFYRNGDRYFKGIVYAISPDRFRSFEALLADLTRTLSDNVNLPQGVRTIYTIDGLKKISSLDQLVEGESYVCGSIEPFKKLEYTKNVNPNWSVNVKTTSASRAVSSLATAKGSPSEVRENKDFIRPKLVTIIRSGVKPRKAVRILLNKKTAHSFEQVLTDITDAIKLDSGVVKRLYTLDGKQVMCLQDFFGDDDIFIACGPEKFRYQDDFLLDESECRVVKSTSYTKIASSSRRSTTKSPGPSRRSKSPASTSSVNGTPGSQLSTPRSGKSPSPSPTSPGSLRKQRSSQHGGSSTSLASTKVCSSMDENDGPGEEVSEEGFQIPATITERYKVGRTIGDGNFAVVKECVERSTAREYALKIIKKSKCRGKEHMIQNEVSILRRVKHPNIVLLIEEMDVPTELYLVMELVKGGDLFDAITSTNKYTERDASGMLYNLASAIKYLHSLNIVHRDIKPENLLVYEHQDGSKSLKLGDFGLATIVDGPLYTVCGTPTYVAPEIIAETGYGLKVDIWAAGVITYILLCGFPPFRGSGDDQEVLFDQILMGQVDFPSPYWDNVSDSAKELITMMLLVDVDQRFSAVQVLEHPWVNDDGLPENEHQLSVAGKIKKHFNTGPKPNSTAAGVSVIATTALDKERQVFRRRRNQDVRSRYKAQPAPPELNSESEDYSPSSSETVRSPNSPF
T2 sequence (Q8N568 whole entry): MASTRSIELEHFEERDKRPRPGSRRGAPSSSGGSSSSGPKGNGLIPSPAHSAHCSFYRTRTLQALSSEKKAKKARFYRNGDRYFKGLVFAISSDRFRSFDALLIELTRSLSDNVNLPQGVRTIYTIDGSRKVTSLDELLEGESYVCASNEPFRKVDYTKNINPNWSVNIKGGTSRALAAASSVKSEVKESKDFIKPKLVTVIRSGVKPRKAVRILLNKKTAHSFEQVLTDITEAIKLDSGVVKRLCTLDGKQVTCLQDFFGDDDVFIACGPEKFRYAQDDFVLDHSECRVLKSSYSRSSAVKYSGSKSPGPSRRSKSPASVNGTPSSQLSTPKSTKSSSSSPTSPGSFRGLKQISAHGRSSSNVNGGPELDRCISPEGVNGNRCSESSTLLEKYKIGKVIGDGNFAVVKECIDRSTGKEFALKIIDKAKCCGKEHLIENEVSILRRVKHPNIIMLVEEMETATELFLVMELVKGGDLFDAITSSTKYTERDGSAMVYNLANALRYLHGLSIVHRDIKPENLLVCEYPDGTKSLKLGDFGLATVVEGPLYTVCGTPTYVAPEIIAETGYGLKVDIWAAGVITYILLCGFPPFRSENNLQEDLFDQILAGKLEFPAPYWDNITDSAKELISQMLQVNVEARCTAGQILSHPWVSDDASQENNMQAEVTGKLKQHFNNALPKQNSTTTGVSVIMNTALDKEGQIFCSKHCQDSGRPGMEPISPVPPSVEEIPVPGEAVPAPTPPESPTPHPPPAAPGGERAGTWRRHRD
T7 sequence (P24723 whole entry): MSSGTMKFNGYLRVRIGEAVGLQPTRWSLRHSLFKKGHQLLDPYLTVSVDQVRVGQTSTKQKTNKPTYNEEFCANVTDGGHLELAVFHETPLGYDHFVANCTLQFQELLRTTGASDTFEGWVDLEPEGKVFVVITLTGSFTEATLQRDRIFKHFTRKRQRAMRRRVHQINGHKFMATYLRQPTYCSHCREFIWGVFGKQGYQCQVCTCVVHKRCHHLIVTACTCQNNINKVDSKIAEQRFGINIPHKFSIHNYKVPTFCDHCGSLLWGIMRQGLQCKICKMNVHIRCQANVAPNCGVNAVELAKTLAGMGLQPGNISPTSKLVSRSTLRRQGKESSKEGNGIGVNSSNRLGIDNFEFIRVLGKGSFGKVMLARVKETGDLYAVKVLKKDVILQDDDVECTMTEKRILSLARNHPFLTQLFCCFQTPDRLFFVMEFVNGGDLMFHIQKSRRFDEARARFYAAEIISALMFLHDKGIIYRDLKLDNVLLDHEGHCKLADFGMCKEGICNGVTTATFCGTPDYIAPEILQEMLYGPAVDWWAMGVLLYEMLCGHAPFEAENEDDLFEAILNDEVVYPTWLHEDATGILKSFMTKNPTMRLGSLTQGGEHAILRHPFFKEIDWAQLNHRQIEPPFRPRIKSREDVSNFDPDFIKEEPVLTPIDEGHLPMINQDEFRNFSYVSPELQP

On to `COc1ncc(-c2ccc3nccc(-c4ccnnc4)c3c2)cc1NS(=O)(=O)c1ccc(F)cc1F` [Omipalisib], for which the remaining activity at 1 µM on panel of 442 kinases [1] turned out to be 92%; at panel of 442 kinases [2] it was 100%; on panel of 442 kinases [3], 100%; at panel of 442 kinases [4], 100%; on panel of 442 kinases [5], 100%; at panel of 442 kinases [6] (ABL1(H396P)-nonphosphorylated), 100%. In addition, the remaining activity at 1 µM turned out to be 100% on panel of 442 kinases [6] (ABL1(H396P)-phosphorylated); 100% on panel of 442 kinases [7]; 26% on panel of 442 kinases [8]; 100% on panel of 442 kinases [9]; 100% on panel of 442 kinases [10]; 100% on panel of 442 kinases [11] (ABL1-nonphosphorylated). Moreover, the remaining activity at 1 µM at panel of 442 kinases [11] (ABL1-phosphorylated) was 98%.
Regarding `Cn1c(=O)n(-c2ccc(C(C)(C)C#N)cc2)c2c3cc(-c4cnc5ccccc5c4)ccc3ncc21` [Dactolisib, 2-methyl-2-[4-(3-methyl-2-oxo-8-quinolin-3-yl-2,3-dihydroimidazo[4,5-c]quinolin-1-yl)-phenyl] propionitrile], the remaining activity at 1 µM at panel of 442 kinases [1] was 100%; at panel of 442 kinases [2], 94%; at panel of 442 kinases [3], 89%; on panel of 442 kinases [6] (ABL1(H396P)-nonphosphorylated), 70%; at panel of 442 kinases [6] (ABL1(H396P)-phosphorylated), 79%; at panel of 442 kinases [7], 78%. For the same compound, the remaining activity at 1 µM on panel of 442 kinases [8] is 50%; at panel of 442 kinases [9], 100%; on panel of 442 kinases [10] it was 100%; at panel of 442 kinases [11] (ABL1-nonphosphorylated), 100%; at panel of 442 kinases [11] (ABL1-phosphorylated) it was 81%.
For the compound `Nc1cc(C(F)(F)F)c(-c2cc(N3CCOCC3)nc(N3CCOCC3)n2)cn1` [Buparlisib], the remaining activity at 1 µM on panel of 442 kinases [1] stood at 100%; at panel of 442 kinases [2] it was 100%; on panel of 442 kinases [3] it was 100%; at panel of 442 kinases [4] it was 93%; on panel of 442 kinases [5], 100%; on panel of 442 kinases [6] (ABL1(H396P)-nonphosphorylated) it was 99%. The remaining activity at 1 µM on panel of 442 kinases [6] (ABL1(H396P)-phosphorylated) turned out to be 96%; on panel of 442 kinases [7] it was 99%; at panel of 442 kinases [8], 95%; at panel of 442 kinases [9], 100%; at panel of 442 kinases [10], 79%; on panel of 442 kinases [11] (ABL1-nonphosphorylated), 100%. Further, the remaining activity at 1 µM at panel of 442 kinases [11] (ABL1-phosphorylated) amounted to 86%. Moreover, the remaining activity at 10 µM at panel of 442 kinases [1] (setting [12]) came out at 92%; at panel of 442 kinases [2] (setting [12]), 100%; at panel of 442 kinases [3] (10 µM, read-out: TGFBR1 (% of control at 10 µM)) it was 100%; at panel of 442 kinases [4] (setting [12]), 100%; at panel of 442 kinases [5] (setting [12]) it was 99%; on panel of 442 kinases [6] (ABL1(H396P)-nonphosphorylated), 100%. Also, the remaining activity at 10 µM at panel of 442 kinases [6] (ABL1(H396P)-phosphorylated) was determined as 100%; on panel of 442 kinases [7] (10 µM, read-out: PRKCH (% of control at 10 µM)) it was 100%; at panel of 442 kinases [8] (setting [12]), 96%; on panel of 442 kinases [9] (setting [12]), 100%; at panel of 442 kinases [10] (setting [12]) it was 82%; at panel of 442 kinases [11] (ABL1-nonphosphorylated) it was 100%. Besides, the remaining activity at 10 µM on panel of 442 kinases [11] (ABL1-phosphorylated) was determined as 100%.
With `FC(F)c1nc2ccccc2n1-c1nc(N2CCOCC2)nc(N2CCOCC2)n1` [ZSTK474, 2-(difluoromethyl)-1-[4,6-di(4-morpholinyl)-1,3,5-triazin-2-yl]-1H-benzimidazole], the remaining activity at 1 µM on panel of 442 kinases [1] was 97%; on panel of 442 kinases [2] it was 100%; at panel of 442 kinases [3] it was 79%; on panel of 442 kinases [4], 92%; on panel of 442 kinases [5], 92%; on panel of 442 kinases [6] (ABL1(H396P)-nonphosphorylated), 100%. Moreover, the remaining activity at 1 µM was determined as 100% on panel of 442 kinases [6] (ABL1(H396P)-phosphorylated); 98% on panel of 442 kinases [7]; 100% at panel of 442 kinases [8]; 100% on panel of 442 kinases [9]; 92% at panel of 442 kinases [10]; 100% at panel of 442 kinases [11] (ABL1-nonphosphorylated). Further, the remaining activity at 1 µM on panel of 442 kinases [11] (ABL1-phosphorylated) was determined as 100%.

Source of the values: article PMC5564600 (Oncotarget, 2017).
